Test results published in publication PMC7265341, “Quantifying CDK inhibitor selectivity in live cells” (Nature Communications, 2020).
Read-outs that look alike come from different tables or passages of the source.

Experiments:
[1] = molecular target: CDK5/CDK5R1 (Homo sapiens, UniProt Q00535); experiment: NanoBRET live-cell target engagement, CDK5-NanoLuc/CDK5R1 in HEK-293; format: binding; conditions: CDK5/CDK5R1, read-out: Inhibition at 10µM (%)
[2] = molecular target: T1, CDK11A/Cyclin L2 (Homo sapiens, UniProt Q9UQ88); experiment: NanoBRET live-cell target engagement, CDK11A-NanoLuc/Cyclin L2 in HEK-293; format: binding; conditions: read-out: Inhibition at 10µM (%), CDK11a/L2
T1 sequence (Q9UQ88 1-783): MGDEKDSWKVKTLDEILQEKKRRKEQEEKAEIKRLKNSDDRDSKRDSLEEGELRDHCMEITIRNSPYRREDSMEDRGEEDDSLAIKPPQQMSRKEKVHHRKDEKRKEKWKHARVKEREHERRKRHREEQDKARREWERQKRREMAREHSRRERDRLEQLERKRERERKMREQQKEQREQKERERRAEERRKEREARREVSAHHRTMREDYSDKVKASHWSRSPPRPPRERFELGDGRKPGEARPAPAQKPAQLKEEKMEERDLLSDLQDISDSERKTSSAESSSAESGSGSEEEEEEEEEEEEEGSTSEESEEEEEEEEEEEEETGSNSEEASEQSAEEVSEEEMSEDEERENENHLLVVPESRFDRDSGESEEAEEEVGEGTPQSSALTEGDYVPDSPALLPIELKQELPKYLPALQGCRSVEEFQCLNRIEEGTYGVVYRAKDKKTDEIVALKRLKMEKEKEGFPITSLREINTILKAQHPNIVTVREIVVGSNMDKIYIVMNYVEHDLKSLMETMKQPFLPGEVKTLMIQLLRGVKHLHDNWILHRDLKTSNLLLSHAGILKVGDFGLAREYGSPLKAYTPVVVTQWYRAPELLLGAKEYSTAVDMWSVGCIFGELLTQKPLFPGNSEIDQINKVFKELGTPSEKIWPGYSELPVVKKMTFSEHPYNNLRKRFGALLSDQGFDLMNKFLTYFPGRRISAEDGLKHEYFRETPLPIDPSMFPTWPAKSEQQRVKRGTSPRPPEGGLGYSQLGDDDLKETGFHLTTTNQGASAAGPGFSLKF

[3] = molecular target: CDK8/Cyclin C (Homo sapiens, UniProt P49336); experiment: NanoBRET live-cell target engagement, NanoLuc-CDK8/Cyclin C in HEK-293; format: binding; conditions: CDK8/C, read-out: Inhibition at 10µM (%)
[4] = molecular target: CDK15/Cyclin Y (Homo sapiens, UniProt Q96Q40); experiment: NanoBRET live-cell target engagement, NanoLuc-CDK15/Cyclin Y in HEK-293; format: binding; conditions: read-out: Inhibition at 10µM (%), CDK15/Y
Sequence of CDK15/Cyclin Y (Q96Q40 whole entry): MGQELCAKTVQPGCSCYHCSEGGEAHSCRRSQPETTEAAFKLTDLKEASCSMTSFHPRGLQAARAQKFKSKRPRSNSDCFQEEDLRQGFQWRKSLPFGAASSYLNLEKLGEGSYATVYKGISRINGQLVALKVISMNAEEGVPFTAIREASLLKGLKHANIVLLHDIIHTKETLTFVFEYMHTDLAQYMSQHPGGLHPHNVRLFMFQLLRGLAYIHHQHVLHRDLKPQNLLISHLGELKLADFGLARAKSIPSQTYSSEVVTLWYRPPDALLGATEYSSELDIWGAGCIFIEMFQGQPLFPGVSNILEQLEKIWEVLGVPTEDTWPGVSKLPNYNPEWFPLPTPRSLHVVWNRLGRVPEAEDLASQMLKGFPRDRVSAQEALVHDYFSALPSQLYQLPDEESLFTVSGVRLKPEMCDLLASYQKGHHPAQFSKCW
Sequence of CDK15/Cyclin Y (Q8ND76 whole entry partner): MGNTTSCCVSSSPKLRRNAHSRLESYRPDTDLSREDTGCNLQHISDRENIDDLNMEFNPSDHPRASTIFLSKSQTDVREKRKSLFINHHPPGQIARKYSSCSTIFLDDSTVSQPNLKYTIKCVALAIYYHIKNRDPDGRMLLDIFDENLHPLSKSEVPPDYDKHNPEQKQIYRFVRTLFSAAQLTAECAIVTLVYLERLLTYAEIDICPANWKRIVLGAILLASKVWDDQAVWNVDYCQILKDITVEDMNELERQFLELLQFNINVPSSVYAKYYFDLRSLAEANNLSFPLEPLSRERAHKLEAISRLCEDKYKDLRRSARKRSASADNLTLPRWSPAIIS

[5] = molecular target: CDK13/Cyclin K (Homo sapiens, UniProt Q14004); experiment: NanoBRET live-cell target engagement, CDK13-NanoLuc/Cyclin K in HEK-293; format: binding; conditions: CDK13/K, read-out: Inhibition at 10µM (%)
[6] = molecular target: CDK6/Cyclin D1 (Homo sapiens, UniProt Q00534); experiment: NanoBRET live-cell target engagement, NanoLuc-CDK6/Cyclin D1 in HEK-293; format: binding; conditions: CDK6/D1, read-out: Inhibition at 10µM (%)
Sequence of CDK6/Cyclin D1 (Q00534 whole entry): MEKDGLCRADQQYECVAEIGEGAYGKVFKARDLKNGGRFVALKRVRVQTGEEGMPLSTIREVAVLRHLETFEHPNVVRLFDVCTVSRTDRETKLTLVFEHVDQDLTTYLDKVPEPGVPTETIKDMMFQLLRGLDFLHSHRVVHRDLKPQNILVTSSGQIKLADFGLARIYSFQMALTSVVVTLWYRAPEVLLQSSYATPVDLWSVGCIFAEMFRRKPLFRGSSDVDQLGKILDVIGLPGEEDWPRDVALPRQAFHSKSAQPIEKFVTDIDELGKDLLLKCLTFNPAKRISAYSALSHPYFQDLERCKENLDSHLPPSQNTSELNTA
Sequence of CDK6/Cyclin D1 (P24385 whole entry partner): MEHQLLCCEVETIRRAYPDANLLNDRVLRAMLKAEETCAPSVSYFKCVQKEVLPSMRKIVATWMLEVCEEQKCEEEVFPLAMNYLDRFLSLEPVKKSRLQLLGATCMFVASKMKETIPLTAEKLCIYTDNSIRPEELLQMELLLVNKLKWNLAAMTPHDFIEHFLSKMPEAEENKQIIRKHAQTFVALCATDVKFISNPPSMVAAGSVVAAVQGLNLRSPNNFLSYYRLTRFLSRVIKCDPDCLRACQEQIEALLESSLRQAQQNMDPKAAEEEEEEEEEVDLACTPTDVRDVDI

[7] = molecular target: CDK10/Cyclin L2 (Homo sapiens, UniProt Q15131); experiment: NanoBRET live-cell target engagement, CDK10-NanoLuc/Cyclin L2 in HEK-293; conditions: read-out: Inhibition at 10µM (%), CDK10/L2
Sequence of CDK10/Cyclin L2 (Q15131 whole entry): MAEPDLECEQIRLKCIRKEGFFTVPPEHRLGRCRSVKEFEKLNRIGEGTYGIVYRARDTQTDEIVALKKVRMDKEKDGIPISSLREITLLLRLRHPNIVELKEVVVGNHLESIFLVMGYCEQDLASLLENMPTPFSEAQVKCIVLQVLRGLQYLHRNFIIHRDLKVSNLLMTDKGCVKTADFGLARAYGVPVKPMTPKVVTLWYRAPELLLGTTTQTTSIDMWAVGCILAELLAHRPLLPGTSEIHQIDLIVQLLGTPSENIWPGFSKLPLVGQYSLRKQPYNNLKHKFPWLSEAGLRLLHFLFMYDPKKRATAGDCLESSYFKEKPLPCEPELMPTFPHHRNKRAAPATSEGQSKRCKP

[8] = molecular target: CDK4/Cyclin D1 (Homo sapiens, UniProt P11802); experiment: NanoBRET live-cell target engagement, NanoLuc-CDK4/Cyclin D1 in HEK-293; format: binding; conditions: CDK4/D1, read-out: Inhibition at 10µM (%)
Sequence of CDK4/Cyclin D1 (P11802 whole entry): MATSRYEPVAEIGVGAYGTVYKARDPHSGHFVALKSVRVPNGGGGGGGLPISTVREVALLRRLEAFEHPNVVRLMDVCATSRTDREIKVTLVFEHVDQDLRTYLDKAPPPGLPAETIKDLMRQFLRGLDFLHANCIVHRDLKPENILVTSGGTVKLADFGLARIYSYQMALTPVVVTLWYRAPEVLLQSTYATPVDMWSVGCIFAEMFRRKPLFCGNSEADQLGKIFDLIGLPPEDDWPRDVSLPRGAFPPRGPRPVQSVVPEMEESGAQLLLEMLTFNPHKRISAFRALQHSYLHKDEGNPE
Sequence of CDK4/Cyclin D1 (P24385 whole entry partner): as the sequence (P24385 whole entry partner) above

[9] = molecular target: CDK19/Cyclin C (Homo sapiens, UniProt Q9BWU1); experiment: NanoBRET live-cell target engagement, NanoLuc-CDK19/Cyclin C in HEK-293; conditions: read-out: Inhibition at 10µM (%), CDK19/C
Sequence of CDK19/Cyclin C (Q9BWU1 whole entry): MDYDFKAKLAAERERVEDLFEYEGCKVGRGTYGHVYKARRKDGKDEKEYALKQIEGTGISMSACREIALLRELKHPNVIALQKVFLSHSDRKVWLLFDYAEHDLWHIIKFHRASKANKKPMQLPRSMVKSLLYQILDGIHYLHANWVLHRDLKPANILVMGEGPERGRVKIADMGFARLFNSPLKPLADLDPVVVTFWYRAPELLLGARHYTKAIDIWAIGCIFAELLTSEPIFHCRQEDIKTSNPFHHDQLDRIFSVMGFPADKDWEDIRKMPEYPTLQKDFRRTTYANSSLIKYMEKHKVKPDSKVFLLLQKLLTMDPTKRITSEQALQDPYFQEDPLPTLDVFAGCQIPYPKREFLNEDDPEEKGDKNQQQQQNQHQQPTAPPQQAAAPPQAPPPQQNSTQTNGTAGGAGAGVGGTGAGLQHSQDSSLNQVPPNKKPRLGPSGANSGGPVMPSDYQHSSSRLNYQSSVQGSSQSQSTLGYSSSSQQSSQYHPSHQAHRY
Sequence of CDK19/Cyclin C (P24863 whole entry partner): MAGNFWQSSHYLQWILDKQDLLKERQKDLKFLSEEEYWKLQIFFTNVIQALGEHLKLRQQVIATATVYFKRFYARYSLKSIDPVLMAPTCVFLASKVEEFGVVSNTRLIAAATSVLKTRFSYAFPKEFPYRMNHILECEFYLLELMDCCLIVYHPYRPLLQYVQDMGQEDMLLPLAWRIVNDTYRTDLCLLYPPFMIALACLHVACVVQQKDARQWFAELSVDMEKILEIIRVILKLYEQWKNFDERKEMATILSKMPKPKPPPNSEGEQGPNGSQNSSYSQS

[10] = molecular target: CDK11B/Cyclin L2 (Homo sapiens, UniProt P21127); experiment: NanoBRET live-cell target engagement, CDK11B-NanoLuc/Cyclin L2 in HEK-293; format: binding; conditions: read-out: Inhibition at 10µM (%), CDK11b/L2
Sequence of CDK11B/Cyclin L2 (P21127 1-782 isoform P21127-2): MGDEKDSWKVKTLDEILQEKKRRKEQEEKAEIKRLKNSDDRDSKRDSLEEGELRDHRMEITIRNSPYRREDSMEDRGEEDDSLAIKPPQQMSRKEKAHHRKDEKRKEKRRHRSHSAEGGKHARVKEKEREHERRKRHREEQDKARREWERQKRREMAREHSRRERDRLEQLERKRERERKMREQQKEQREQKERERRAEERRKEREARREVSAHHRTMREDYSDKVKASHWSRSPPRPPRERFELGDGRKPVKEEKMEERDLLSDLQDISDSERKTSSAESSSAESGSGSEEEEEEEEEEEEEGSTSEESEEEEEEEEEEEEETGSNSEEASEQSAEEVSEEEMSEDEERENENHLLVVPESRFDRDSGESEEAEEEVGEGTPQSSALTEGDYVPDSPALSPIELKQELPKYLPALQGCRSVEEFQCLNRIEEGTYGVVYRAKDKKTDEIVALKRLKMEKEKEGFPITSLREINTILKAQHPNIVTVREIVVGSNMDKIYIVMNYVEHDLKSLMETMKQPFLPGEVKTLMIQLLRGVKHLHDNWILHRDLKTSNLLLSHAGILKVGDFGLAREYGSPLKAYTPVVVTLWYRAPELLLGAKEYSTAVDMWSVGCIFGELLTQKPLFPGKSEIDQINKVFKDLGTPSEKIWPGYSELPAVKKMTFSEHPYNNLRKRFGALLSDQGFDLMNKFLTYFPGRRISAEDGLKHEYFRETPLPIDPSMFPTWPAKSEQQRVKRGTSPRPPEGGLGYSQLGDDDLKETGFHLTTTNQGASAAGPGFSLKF

[11] = molecular target: CDK12/Cyclin K (Homo sapiens, UniProt Q9NYV4); experiment: NanoBRET live-cell target engagement, CDK12-NanoLuc/Cyclin K in HEK-293; format: binding; conditions: read-out: Inhibition at 10µM (%), CDK12/K
[12] = molecular target: CDK14/Cyclin Y (Homo sapiens, UniProt O94921); experiment: NanoBRET live-cell target engagement, CDK14-NanoLuc/Cyclin Y in HEK-293; format: binding; conditions: read-out: Inhibition at 10µM (%), CDK14/Y
[13] = molecular target: CDK16/Cyclin Y (Homo sapiens, UniProt Q00536); experiment: NanoBRET live-cell target engagement, CDK16-NanoLuc/Cyclin Y in HEK-293; format: binding; conditions: read-out: Inhibition at 10µM (%), CDK16/Y
[14] = molecular target: CDK18/Cyclin Y (Homo sapiens, UniProt Q07002); experiment: NanoBRET live-cell target engagement, CDK18-NanoLuc/Cyclin Y in HEK-293; format: binding; conditions: read-out: Inhibition at 10µM (%), CDK18/Y
[15] = molecular target: CDK1/Cyclin E1 (Homo sapiens, UniProt P06493); experiment: NanoBRET live-cell target engagement, CDK1-NanoLuc/Cyclin E1 in HEK-293; format: binding; conditions: CDK1/E1, read-out: Inhibition at 10µM (%)
Sequence of CDK1/Cyclin E1 (P06493 whole entry): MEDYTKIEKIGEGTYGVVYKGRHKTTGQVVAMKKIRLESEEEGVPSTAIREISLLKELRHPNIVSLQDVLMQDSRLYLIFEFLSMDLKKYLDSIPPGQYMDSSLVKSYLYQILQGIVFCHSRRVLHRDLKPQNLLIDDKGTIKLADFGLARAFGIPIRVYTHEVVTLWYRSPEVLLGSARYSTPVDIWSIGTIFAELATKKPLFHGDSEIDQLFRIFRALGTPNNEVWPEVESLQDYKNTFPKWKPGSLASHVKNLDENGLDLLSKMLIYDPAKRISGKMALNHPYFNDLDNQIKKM
Sequence of CDK1/Cyclin E1 (P24864 whole entry partner): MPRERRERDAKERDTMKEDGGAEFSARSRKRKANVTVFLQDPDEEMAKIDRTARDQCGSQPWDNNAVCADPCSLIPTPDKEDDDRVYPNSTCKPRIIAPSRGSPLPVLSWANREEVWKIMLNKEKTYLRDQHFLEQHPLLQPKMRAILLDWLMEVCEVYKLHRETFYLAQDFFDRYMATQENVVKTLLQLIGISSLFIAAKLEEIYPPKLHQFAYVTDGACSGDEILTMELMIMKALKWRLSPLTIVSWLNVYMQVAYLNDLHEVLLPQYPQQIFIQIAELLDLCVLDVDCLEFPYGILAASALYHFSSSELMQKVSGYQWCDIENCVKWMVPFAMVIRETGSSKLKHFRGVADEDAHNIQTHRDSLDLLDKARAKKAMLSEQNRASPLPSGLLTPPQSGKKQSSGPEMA

[16] = molecular target: CDK7 (Homo sapiens, UniProt P50613); experiment: NanoBRET live-cell target engagement, NanoLuc-CDK7 in HEK-293; format: binding; conditions: CDK7, read-out: Inhibition at 10µM (%)
Sequence of CDK7 (P50613 whole entry): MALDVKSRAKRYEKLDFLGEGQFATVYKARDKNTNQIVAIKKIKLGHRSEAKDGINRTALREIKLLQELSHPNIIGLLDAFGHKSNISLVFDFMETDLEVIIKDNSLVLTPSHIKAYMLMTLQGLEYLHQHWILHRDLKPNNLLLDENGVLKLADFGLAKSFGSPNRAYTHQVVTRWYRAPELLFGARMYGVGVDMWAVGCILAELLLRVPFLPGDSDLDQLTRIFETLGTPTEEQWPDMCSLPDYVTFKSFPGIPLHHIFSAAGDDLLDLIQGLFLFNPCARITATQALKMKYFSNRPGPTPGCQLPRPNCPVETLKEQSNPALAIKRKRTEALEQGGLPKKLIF

[17] = molecular target: CDK17/Cyclin Y (Homo sapiens, UniProt Q00537); experiment: NanoBRET live-cell target engagement, CDK17-NanoLuc/Cyclin Y in HEK-293; format: binding; conditions: read-out: Inhibition at 10µM (%), CDK17/Y
[18] = molecular target: CDK20/Cyclin H (Homo sapiens, UniProt Q8IZL9); experiment: NanoBRET live-cell target engagement, NanoLuc-CDK20/Cyclin H in HEK-293; format: binding; conditions: read-out: Inhibition at 10µM (%), CDK20/H
[19] = molecular target: CDK9/Cyclin K (Homo sapiens, UniProt P50750); experiment: NanoBRET live-cell target engagement, NanoLuc-CDK9/Cyclin K in HEK-293; format: binding; conditions: CDK9/K, read-out: Inhibition at 10µM (%)

Question: Which inhibition at 10 µM ([1]; average) does the source give for `COc1ccccc1-c1cc(Nc2cccc(CS(N)(=O)=O)c2)ncn1` [LDC000067] here?
Answer: 11.4%

Question: What about the inhibition at 10 µM ([1]; experiment 1) of the same compound?
Answer: 17.5%

Question: And the inhibition at 10 µM ([1]; experiment 2)?
Answer: 5.3%

Question: And the inhibition at 10 µM ([2]; average)?
Answer: 7.5%

Question: And the inhibition at 10 µM ([2]; experiment 1)?
Answer: 4.3%

Question: What about the inhibition at 10 µM ([2]; experiment 2) of the same compound?
Answer: 10.7%

Question: What about the inhibition at 10 µM ([3]; average) of the same compound?
Answer: 5.3%

Question: What about the inhibition at 10 µM ([3]; experiment 1) of the same compound?
Answer: 5.1%

Question: What about the inhibition at 10 µM ([3]; experiment 2) of the same compound?
Answer: 5.6%

Question: What about the inhibition at 10 µM ([4]; average) of the same compound?
Answer: -1%

Question: And the inhibition at 10 µM ([4]; experiment 1)?
Answer: 3%

Question: What about the inhibition at 10 µM ([4]; experiment 2) of the same compound?
Answer: -5%

Question: And the inhibition at 10 µM ([5]; average)?
Answer: 10.2%

Question: What about the inhibition at 10 µM ([5]; experiment 1) of the same compound?
Answer: 7.7%

Question: What about the inhibition at 10 µM ([5]; experiment 2) of the same compound?
Answer: 12.8%

Question: What about the inhibition at 10 µM ([6]; average) of the same compound?
Answer: 38.7%

Question: And the inhibition at 10 µM ([6]; experiment 1)?
Answer: 31.9%

Question: What about the inhibition at 10 µM ([6]; experiment 2) of the same compound?
Answer: 45.4%

Question: What about the inhibition at 10 µM ([7]; average) of the same compound?
Answer: 6.6%

Question: And the inhibition at 10 µM ([7]; experiment 1)?
Answer: 10.2%

Question: What about the inhibition at 10 µM ([7]; experiment 2) of the same compound?
Answer: 3.1%

Question: What about the inhibition at 10 µM ([8]; average) of the same compound?
Answer: 44%

Question: And the inhibition at 10 µM ([8]; experiment 1)?
Answer: 41.2%

Question: What about the inhibition at 10 µM ([8]; experiment 2) of the same compound?
Answer: 46.7%

Question: What about the inhibition at 10 µM ([9]; average) of the same compound?
Answer: 11.4%

Question: And the inhibition at 10 µM ([9]; experiment 1)?
Answer: 16.6%

Question: And the inhibition at 10 µM ([9]; experiment 2)?
Answer: 6.1%

Question: And the inhibition at 10 µM ([10]; average)?
Answer: 10.2%

Question: And the inhibition at 10 µM ([10]; experiment 1)?
Answer: 9.7%

Question: What about the inhibition at 10 µM ([10]; experiment 2) of the same compound?
Answer: 10.7%

Question: What about the inhibition at 10 µM ([11]; average) of the same compound?
Answer: 22.1%

Question: What about the inhibition at 10 µM ([11]; experiment 1) of the same compound?
Answer: 7%

Question: And the inhibition at 10 µM ([11]; experiment 2)?
Answer: 37.2%

Question: And the inhibition at 10 µM ([12]; average)?
Answer: -2.3%

Question: And the inhibition at 10 µM ([12]; experiment 1)?
Answer: -0.216%

Question: And the inhibition at 10 µM ([12]; experiment 2)?
Answer: -4.4%

Question: And the inhibition at 10 µM ([13]; experiment 1)?
Answer: 17%

Question: And the inhibition at 10 µM ([13]; experiment 2)?
Answer: 12.6%

Question: And the inhibition at 10 µM ([14]; average)?
Answer: 8.7%

Question: And the inhibition at 10 µM ([14]; experiment 1)?
Answer: 5.1%

Question: What about the inhibition at 10 µM ([14]; experiment 2) of the same compound?
Answer: 12.3%

Question: What about the inhibition at 10 µM ([15]; average) of the same compound?
Answer: 31.6%

Question: And the inhibition at 10 µM ([15]; experiment 1)?
Answer: 30.7%

Question: And the inhibition at 10 µM ([15]; experiment 2)?
Answer: 32.5%

Question: What about the inhibition at 10 µM ([16]; average) of the same compound?
Answer: -9.3%

Question: What about the inhibition at 10 µM ([16]; experiment 1) of the same compound?
Answer: -12.1%

Question: And the inhibition at 10 µM ([16]; experiment 2)?
Answer: -6.5%

Question: And the inhibition at 10 µM ([17]; average)?
Answer: 19%

Question: What about the inhibition at 10 µM ([17]; experiment 1) of the same compound?
Answer: 20.7%

Question: And the inhibition at 10 µM ([17]; experiment 2)?
Answer: 17.3%

Question: And the inhibition at 10 µM ([18]; experiment 1)?
Answer: 11.2%

Question: And the inhibition at 10 µM ([18]; experiment 2)?
Answer: 17.8%

Question: What about the inhibition at 10 µM ([19]; average) of the same compound?
Answer: 88.8%

Question: And the inhibition at 10 µM ([19]; experiment 1)?
Answer: 87.2%

Question: What about the inhibition at 10 µM ([19]; experiment 2) of the same compound?
Answer: 90.3%
